The test system of assay [1] is CAL-148. The note with it: 72 h. An outline of the steps:
(§1)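 For viability, cells received 2.5 µl CellTiter-Blue for 2 h at 37 °C and fluorescence was read at 560/590 nm. Before this, breast cancer cell lines in 20 µl suspension had been incubated for 72 h on 384-well plates pre-loaded with compound dissolved in 5 µl medium. EC50 was obtained from a percent-inhibition dose-response fit censored at the highest concentration, after normalisation of each plate to vehicle and a positive kill control; rows with a zero drug sensitivity score were discarded.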

Assay [2] concerns CAL-51. To be noted: 72 h. An outline of the steps:
as §1

The test system of assay [3] is DU-4475. To be noted: 72 h. An outline of the steps: as §1
Assay [4] has as its system HCC1143. To be noted: 72 h. An outline of the steps: as §1
The subject of assay [5] is HCC1937. The note with it: 72 h. An outline of the steps:
as §1

The test system of assay [6] is HCC1599. The note with it: 72 h. The method, boiled down:
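For viability and cell death testing, 384-well plates carried compound at 5 concentrations in 10-fold steps over a compound-specific 10,000-fold range, and breast cancer cell lines were seeded in 20 µl suspension. After 72 h incubation, cell death was read by CellTox Green fluorescence (485/520 nm) before viability was read by CellTiter-Glo luminescence. EC50 was fitted from the dose-response curves and censored at the top concentration. Normalisation on each plate was to 0.1 % DMSO and a positive kill control.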

The test system of assay [7] is CAL-85-1. The note with it: 72 h. The method, boiled down: as §1
The subject of assay [8] is HDQ-P1. The note with it: 72 h. An outline of the steps: as §1
Assay [9] concerns MDA-MB-453. The note with it: 72 h. The method, boiled down: as §1
The subject of assay [10] is BT-474. To be noted: 72 h. An outline of the steps: as §1
Assay [11] relates to BT-549. The note with it: 72 h. The method, boiled down: as §1
For assay [12], the system named is CAL-120. To be noted: 72 h. An outline of the steps: as §1
The subject of assay [13] is HCC1599. To be noted: 72 h. An outline of the steps: as §1
This is another data set of the same source.

Assay [14] concerns Hs578T. To be noted: 72 h. The method, boiled down:
as §1

For assay [15], the system named is MDA-MB-231. The note with it: 72 h. The method, boiled down:
as §1

Assay [16] deals with MDA-MB-436. The note with it: 72 h. The method, boiled down:
as §1

Assay [17] deals with MDA-MB-468. The note with it: 72 h. The method, boiled down: as §1
The subject of assay [18] is MFM-223. The note with it: 72 h. The method, boiled down: as §1
Assay [19] deals with SK-BR-3. To be noted: 72 h. The method, boiled down: as §1
The subject of assay [20] is CAL-51. The note with it: 72 h. How it is done:
(§2)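 Drug sensitivity and resistance testing (DSRT) of breast cancer cell lines in 384-well plates, 5 concentrations in 10-fold dilutions over a compound-specific 10,000-fold range. After 72 h, cytotoxicity was read by CellTox Green fluorescence and viability by CellTiter-Glo luminescence (multiplexed), normalised to DMSO and benzethonium chloride controls. EC50 is the inflection point of the fitted dose-response curve (bottom asymptote free, so it can be relative for partial curves) and is censored at the highest tested concentration. Rows with DSS 0 (no meaningful response) were excluded.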
The source holds these as a separate data set.

For assay [21], the system named is CAL-85-1. The note with it: 72 h. How it is done:
as §2
The source holds these as a separate data set.

For assay [22], the system named is Hs578T. To be noted: 72 h. How it is done:
as §2
This is another data set of the same source.

Assay [23] relates to MCF-10A. The note with it: 72 h. How it is done:
as §2

The subject of assay [24] is MDA-MB-453. The note with it: 72 h. How it is done:
as §2
The source holds these as a separate data set.

The test system of assay [25] is MDA-MB-468. To be noted: 72 h. How it is done:
as §2
This is another data set of the same source.

Assay [26] concerns HCC1937. The note with it: 72 h. How it is done: as §2
The source holds these as a separate data set.

Assay [27] deals with CAL-120. The assay can be described thus: normalised response (% of control), CellTiter-Glo; higher = more viable cells (100 = DMSO, 0 = benzethonium chloride kill control). The note with it: incubation time: 72 h. The method, boiled down: (§3)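 CellTox Green fluorescence (485/520 nm) and, after 10 min at room temperature, CellTiter-Glo luminescence were read from breast cancer cell lines incubated 72 h in 384-well plates. Cells were seeded as 20 µl suspension onto compound at 5 concentrations in 10-fold steps over a 10,000-fold range chosen per compound. Each plate was normalised to 0.1 % DMSO (100) and a positive kill control (0). Values are normalised signals, one per concentration.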
(In general: Cellular ATP, detected with luciferase, serves as a proxy for viable cell number.)

Assay [28] deals with CAL-148. Described as above. The note with it: incubation time: 72 h. The method, boiled down: as §3
In assay [29] the test system is CAL-85-1. The description is as above. The note with it: incubation time: 72 h. The method, boiled down:
as §3

Assay [30] deals with HCC1143. The description is as above. The note with it: incubation time: 72 h. An outline of the steps: as §3
Assay [31] concerns MCF-10A. Described as above. To be noted: incubation time: 72 h. The method, boiled down:
as §3

Assay [32] deals with MDA-MB-231. The description is as above. To be noted: incubation time: 72 h. An outline of the steps: as §3
Assay [33] concerns MDA-MB-436. The description is as above. To be noted: incubation time: 72 h. The method, boiled down:
as §3

Assay [34] has as its system BT-474. To be noted: 72 h. How it is done:
as §2
The source holds these as a separate data set.

The test system of assay [35] is HCC1143. The note with it: 72 h. How it is done: as §2
This is another data set of the same source.

A value given as a limit tells only on which side of the number the result lay.

The record followed here is the supplement of paper PMC4862054.

Turning to `NC(=O)c1cccc2cn(-c3ccc([C@@H]4CCCNC4)cc3)nc12` [MK-4827], the “EC50, CellTiter-Blue viability” value in assay [1] is 2.33 µM; in [2], 1.78 µM; in assay [3], 4.42 µM; in [4] it was 1.66 µM; in assay [5], 1.33 µM.
Turning to `CO[C@H](C(=O)[C@@H](O)[C@@H](C)O)[C@@H]1Cc2cc3cc(O[C@H]4C[C@@H](O[C@@H]5C[C@@H](O)[C@H](O)[C@@H](C)O5)[C@H](O)[C@@H](C)O4)c(C)c(O)c3c(O)c2C(=O)[C@H]1O[C@H]1C[C@@H](O[C@@H]2C[C@@H](O)[C@@H](O[C@@H]3C[C@](C)(O)[C@H](O)[C@@H](C)O3)[C@@H](C)O2)[C@H](O)[C@@H](C)O1` [Plicamycin], the “EC50, CellTiter-Glo” value in assay [6] was 4.45 µM. Further, the “EC50, CellTiter-Blue viability” value in [1] is 0.0736 µM; in assay [2], 0.124 µM; in [7], 0.0837 µM; in assay [3] it was 0.0488 µM; in assay [8] it was 0.0845 µM; in assay [9], 0.082 µM. Also, the “EC50, CellTiter-Blue viability” value was determined as 0.123 µM in assay [10]; 0.0336 µM in assay [11]; 0.0471 µM in assay [12]; 0.0269 µM in assay [4]; 0.105 µM in assay [13]; 0.0372 µM in assay [5]. In addition, the “EC50, CellTiter-Blue viability” value stood at 0.0308 µM in assay [14]; 0.0416 µM in assay [15]; 0.0255 µM in assay [16]; 0.0281 µM in assay [17]; 0.168 µM in assay [18]; 0.0498 µM in assay [19]. Also, the “EC50, CellTox Green” value in assay [20] is 2.12 µM; in [21] it was 8.29 µM; in assay [22], 6.42 µM; in assay [23] it was 2.85 µM; in assay [24], 7.42 µM; in assay [25], 0.39 µM.
Regarding `CO[C@H]1C[C@@H]2CC[C@@H](C)[C@@](O)(O2)C(=O)C(=O)N2CCCC[C@H]2C(=O)O[C@H]([C@H](C)C[C@@H]2CC[C@@H](O)[C@H](OC)C2)CC(=O)[C@H](C)/C=C(\C)[C@@H](O)[C@@H](OC)C(=O)[C@H](C)C[C@H](C)/C=C/C=C/C=C/1C` [Sirolimus], the “EC50, CellTiter-Blue viability” value came to 0.00113 µM in [1]; 0.00079 µM in assay [2]; 0.00046 µM in assay [7]; 0.00124 µM in [3]; 0.00055 µM in assay [8]; 0.00071 µM in assay [9]. Further, the “EC50, CellTiter-Blue viability” value in [11] came out at 0.0002 µM; in assay [12], 0.00132 µM; in assay [4], 0.00133 µM; in assay [13], 0.00157 µM; in assay [5], 0.00016 µM; in assay [14], 0.00014 µM. The “EC50, CellTiter-Blue viability” value in assay [17] was 0.00026 µM; in assay [18], 0.00018 µM; in assay [19] it was 0.00342 µM. Further, the “EC50, CellTox Green” value in [26] came out at 0.0987 µM.
As to `CO[C@H]1C[C@@H]2CC[C@@H](C)[C@@](O)(O2)C(=O)C(=O)N2CCCC[C@H]2C(=O)O[C@H]([C@H](C)C[C@@H]2CC[C@@H](O)[C@H](OC)C2)CC(=O)[C@H](C)/C=C(\C)[C@@H](O)[C@@H](OC)C(=O)[C@H](C)C[C@H](C)/C=C/C=C/C=C/1C` [Sirolimus] (100 nM), the normalised response was determined as 64.5% in assay [27]; 59.6% in assay [28]; 60.5% in assay [29]; 62.4% in [30]; 85.7% in assay [31]; 81.2% in [32]. Besides, the normalised response in assay [33] worked out at 73.9%.
Turning to `CN1CCN(c2nc(C3=C(c4c[nH]c5ccccc45)C(=O)NC3=O)c3ccccc3n2)CC1` [Sotrastaurin] (10000 nM), the normalised response came to 82.7% in assay [27]; 84.3% in assay [28]; 112% in assay [29]; 94.2% in assay [30]; 94.2% in [31]; 107% in assay [32]. In assay [33], this compound registered a normalised response of 107%.
Regarding `CC/C(=C(\c1ccccc1)c1ccc(OCCN(C)C)cc1)c1ccccc1` [Tamoxifen], the “EC50, CellTiter-Blue viability” value in assay [9] came to 5.97 µM; in [11], 3.42 µM; in assay [16] it was 7.53 µM; in [17], 4.42 µM. Besides, the “EC50, CellTox Green” value in assay [26] was determined as 0.325 µM; in assay [24], 7.24 µM.
Regarding `CC/C(=C(\c1ccccc1)c1ccc(OCCN(C)C)cc1)c1ccccc1` [Tamoxifen] (10000 nM), the normalised response in assay [27] worked out at 90%; in assay [28] it was 77.7%; in assay [29], 81.6%; in assay [30] it was 95.7%; in assay [31], 74.3%; in assay [32] it was 60.8%. In assay [33], this compound showed a normalised response of 86.9%.
`COc1cc2c(N3CCN(C(=O)Nc4ccc(OC(C)C)cc4)CC3)ncnc2cc1OCCCN1CCCCC1` [Tandutinib]: in [1], the “EC50, CellTiter-Blue viability” value was found to be 0.605 µM.
As to `C[C@@H](C(=O)O)c1ccc(-c2ccccc2)c(F)c1` [Tarenflurbil], the “EC50, CellTiter-Blue viability” value in assay [9] turned out to be 1.41 µM. Besides, in assay [34], the “EC50, CellTox Green” value is more than 10 µM.
With `Cn1nnc2c(C(N)=O)ncn2c1=O` [Temozolomide], the “EC50, CellTiter-Blue viability” value in assay [8] is 7.85 µM; in assay [11] it was 1.33 µM.
Regarding `Cn1nnc2c(C(N)=O)ncn2c1=O` [Temozolomide] (10000 nM), the normalised response was found to be 95.2% in [27]; 95.8% in assay [28]; 99.2% in assay [29]; 95.1% in [30]; 96.2% in assay [31]; 91.2% in assay [32]. In addition, the normalised response in assay [33] turned out to be 98%.
With `CN1CCc2c(c3ccccc3n2Cc2ccc(C(=O)NO)cc2)C1` [Tubastatin A], the figures for the “EC50, CellTox Green” value in assay [34], in [20] and in assay [35] were more than 10 µM, 2.22 µM and 0.297 µM, respectively.
In the case of `CC[C@@H]1C(=O)N(C)c2cnc(Nc3ccc(C(=O)N[C@H]4CC[C@H](N5CCN(CC6CC6)CC5)CC4)cc3OC)nc2N1C(C)C` [Volasertib] (1000 nM), the normalised response in assay [27] is 49.1%; in assay [28] it was 79.9%; in [29], 48.6%; in assay [30], 41.3%; in [31], 46.9%; in [32] it was 73%. Further, the normalised response in [33] came out at 65.6%.
